# Reference: US20230317203A1, “SCREENING METHOD” (University of Leeds, priority 2022, published 2023)
# Assays:
# BRISC [1] = molecular target: T1, BRISC (Homo sapiens, UniProt P46736+Q15018+Q9NXR7); test: Mass photometry of BRISC oligomeric state; assay type: binding; conditions: purified BRISC mixed with inhibitor, FIG. 2B
# Method: (§1) Microscope coverslips were prepared as previously described^33. All mass photometry experiments were performed using a One^MP mass photometer (Refeyn Ltd, Oxford, UK). For preliminary BRISC-inhibitor measurements, 1 μM BRISC(FL) was mixed with either DMSO or inhibitor at 330 μM and incubated for 15 minutes on ice. Prior to MP measurement, the BRISC-inhibitor mix was diluted in gel filtration buffer (25 mM HEPES, 150 mM NaCl, 1 mM TCEP) for a final concentration of BRISC at 10 nM (0.05% DMSO). 12 μL of this dilution was used for the final MP measurement, following autofocus stabilisation. […] The BRISC-inhibitor mix was used directly for MP measurement using buffer-free autofocus stabilisation. Movies were recorded for 60 seconds using AcquireMP (Refeyn, UK), and were processed using DiscoverMP (Refeyn, UK). Mass photometry image processing has been previously described^33. Briefly, contrast-to-mass (C2M) calibration was performed using protein standards (66-669 kDa) diluted in gel filtration buffer. […] The mass distribution from each run is in a histogram, where count refers to each landing event and a Gaussian sum is fitted to the data. The relative amount of each species is calculated as the area of each Gaussian, where a refers to the standard deviation of the fitted Gaussian. […] Curves were fitted and EC50 values were calculated using the GraphPad Prism (v8.0) built-in dose-response equation for concentration of agonist vs. response (variable slope).
# BRISC [2] = test: Mass photometry of BRISC oligomeric state; assay type: binding, human; conditions: mass photometry
# Method: as §1
# BRISC Abraxas2 Thr135Lys = BRISC Abraxas2 Thr135Lys (Homo sapiens, UniProt P46736+Q15018+Q9NXR7, T135K); test: IQF DUB assay, BRISC mutant Abraxas2 Thr135Lys; assay type: biochemical; conditions: FIG. 4B
# Method: (§2) The four-subunit human BRISC (full-length (FL) and MERIT40ΔN, Abraxas2ΔC) complex was cloned using the MultiBac system and co-expressed in Spodoptera frugiperda (Sf9) insect cells^32. BRISC mutants were cloned into pFastBac vectors in the Bac-to-Bac system (ThermoFisher), baculoviruses generated in Sf9 cells and used for co-infection of Trichoplusia ni (Tni) cells. All BRISC complexes were purified as previously described^12,13.
# (§3) BRISC complexes were tested for activity in DUB reaction buffer containing 50 mM HEPES-NaOH pH 7.0, 100 mM NaCl, 0.1 mg/mL BSA, 1 mM DTT, and 0.003% Brij-35. […] Inhibitors were assayed at concentrations up to 200 μM. […] DUB activity was measured using internally quenched fluorescent (IQF) K63-linked diUb (Lifesensors, catalogue number: DU6303) at 50 or 100 nM. Cleaved diUb was monitored by measuring fluorescence intensity (Ex. 540 nm, Em. 580 nm; dichroic mirror 560 nm). Fluorescence intensity was measured every minute for 30 minutes at 30° C. Fluorescence intensity units for the first 10 minutes were plotted against time to generate a linear reaction progress curve, where the initial velocity (v0) corresponds to the gradient of the curve. IC50 values were calculated using the GraphPad Prism (v8.0) built-in dose-response equation for inhibitor concentration vs. response (variable slope). […]
# BRISC BRCC36 Trp130Ala = BRISC BRCC36 Trp130Ala (Homo sapiens, UniProt P46736+Q15018+Q9NXR7, W130A); test: IQF DUB assay, BRISC mutant BRCC36 Trp130Ala; assay type: biochemical; conditions: FIG. 4B
# Method: as §2, §3
# BRISC [3] = molecular target: T1, BRISC; test: IQF K63-linked diUb DUB activity assay, BRISC; assay type: biochemical; design: made in house; host or cells: Spodoptera frugiperda (Sf9) insect cells; conditions: IQF assay, fluorescent di-ubiquitin substrate, FIG. 1F
# Method: BRISC complexes were tested for activity in DUB reaction buffer containing 50 mM HEPES-NaOH pH 7.0, 100 mM NaCl, 0.1 mg/mL BSA, 1 mM DTT, and 0.003% Brij-35. […] Inhibitors were assayed at concentrations up to 200 μM. 20 μL enzyme reactions were carried out in 384-well black flat-bottom low flange plates (Corning; 35373). DUB activity was measured using internally quenched fluorescent (IQF) K63-linked diUb (Lifesensors, catalogue number: DU6303) at 50 or 100 nM. Cleaved diUb was monitored by measuring fluorescence intensity (Ex. 540 nm, Em. 580 nm; dichroic mirror 560 nm). Fluorescence intensity was measured every minute for 30 minutes at 30° C. Fluorescence intensity units for the first 10 minutes were plotted against time to generate a linear reaction progress curve, where the initial velocity (v0) corresponds to the gradient of the curve. IC50 values were calculated using the GraphPad Prism (v8.0) built-in dose-response equation for inhibitor concentration vs. response (variable slope).
# A high throughput biochemical screen was designed to identify inhibitors of BRISC, based on the ability of small molecules to inhibit BRISC cleavage of a K63-linked di-ubiquitin substrate. The di-ubiquitin substrate is designed with a fluorescent TAMRA dye on the proximal ubiquitin moiety and fluorescence quencher on the distal ubiquitin molecule (FIG. 1A). Upon isopeptidase bond cleavage, fluorescence is detected, enabling continuous fluorescent readout of deubiquitylase activity over time (FIG. 1A). The assay conditions were optimised and used to test an in-house compound library comprising of ˜300 published and custom-made kinase inhibitors. From this screen, two hits were identified, compounds AT7519 (well H20) and YM201636 (well P12) (FIG. 1B). The specificity of these compounds was assessed against the broad-spectrum DUB ubiquitin-specific protease-2 (USP2) and the serine protease trypsin which cleave K63-Ub substrate under the same conditions. […] UV-Vis spectroscopy analyses of the compound in well H20 used in the screen compared to the Synkinase and Sellechem AT7519 compounds identified an additional peak in the H20 spectra (FIG. 5C). […] The synthesis of the two isomers was confirmed using mass spectrometry fragmentation analyses (FIG. 5E) and the inhibitory effect of the isomers was tested against BRISC.
compound,measurement,setting,value
O=C(NC1C2CNCC21)c1nn(C(=O)c2c(Cl)cccc2Cl)cc1NC(=O)c1c(Cl)cccc1Cl (stereo not drawn) [FX-171-C],"mass photometry counts, 1:1:1:1 complex",BRISC [1],13%
same,"mass photometry counts, dimer",BRISC [1],52%
same,dimer formation at increasing inhibitor concentration,BRISC [2],dose-dependent increase in dimer formation
same,inhibitor sensitivity of mutant,BRISC Abraxas2 Thr135Lys,no effect on inhibitor sensitivity
same,inhibitor sensitivity of mutant,BRISC BRCC36 Trp130Ala,severely affected
same,IC50 compared to JMS-175-2,BRISC [3],slightly improved
